Results taken from patent publication US11976054B2, “Amide derivative and preparation method therefore and use thereof in medicine” (Chengdu Baiyu Pharmaceutical Co., Ltd., priority 2019, dated 2024).

Columns and labels:
[1] = system: Human monocyte cell line THP-1; assay: Detection of THP-1 cell pyroptosis (Caspase-Glo 1 Inflammasome Assay); type: cell-based; settings: 20 nM PMA 48 h, 1 μg/mL LPS, compound 3 h
Method: Human monocyte cell line THP-1 (ATCC® TB-202TM) was cultured in RPMI-1640 culture medium containing […], 1 mM pyruvic acid, 0.05 mM β-mercaptoethanol and 10% double antibody under the culture conditions of 37° C. and […].
Cell counting was performed, THP-1 cells were seeded into a 96-well plate at 50000 per well, and 20 nM PMA was added for inducing at 37° C./5% CO2 for 48 h. The culture medium was then discarded, and 100 μL of serum-free RPMI-1640 medium containing 1 μg/mL LPS was added. 5 μL of compound or solvent control was added and 3-fold diluted in gradient from a maximum concentration of 10 μM, and 10 gradient concentrations were set. The mixtures were incubated at 37° C./5% CO2 for 3 h. After the incubation, the mixtures were centrifuged at 300 g for 5 min, and the culture medium was discarded. Pyroptosis assay was performed according to specific steps described in instructions of Caspase-Glo® 1 Inflammasome Assay kit. IC50 was calculated using GraphPad Prism7.0 software.

[2] = Pharmacokinetic analysis of compounds in rats; type: in vivo, SD rats; settings: SD, rat, in vivo
Method: Healthy adult SD rats weighing 180-220 g were fasted (free access to water) overnight and divided into tail vein administration group and intragastric administration group. The tail vein administration group was subjected to blood collection of 0.1 mL from orbital venous plexus before the administration and 5 min, 15 min, 0.5 h, 1 h, 2 h, 4 h, 8 h, 12 h and 24 h after the administration, and plasma was separated out by centrifugation at 4° C. for 5 min and stored at −20° C. for test. The intragastric administration group was subjected to blood collection of 0.1 mL from orbital venous plexus before the administration and 5 min, 15 min, 0.5 h, 1 h, 2 h, 4 h, 8 h, 12 h and 24 h after the administration, and the subsequent treatment procedures were the same as those of the tail vein injection group. The concentration of parent drug in the plasma was determined by LC-MS/MS.

[3] = Homo sapiens, THP-1, THP-1 pyroptosis

| Compound | IC50 [1, 3] [nM] | IC50 ([1]; THP-1 pyroptosis) [nM] | further results |
| --- | --- | --- | --- |
| C[C@H](c1ccc2c(c1NC(=O)NS(=N)(=O)c1ccc(C3(O)COC3)s1)CCC2)C1CC1 (stereo partly drawn) [Compound 65C, N-((5-((S)-1-cyclopropylethyl)-2,3-dihydro-1H-inden-4-yl)carbamoyl)-5-(3-hydroxyoxetan-3-yl)thiophene-2-sulfonimidamide] | 100 to 500 | – | – |
| Cc1cc2c(c(NC(=O)NS(=O)(=O)c3cc(C(C)(C)O)co3)c1[C@H](C)C1CC1)CCC2 [Compound 90, (R)-N-((5-(1-cyclopropylethyl)-6-methyl-2,3-dihydro-1H-inden-4-yl)carbamoyl)-4-(2-hydroxypropan-2-yl)furan-2-sulfonamide] | 100 to 500 | – | – |
| CC(C)(O)c1coc(S(=O)(=O)NC(=O)Nc2c(CC3CC3)ccc3c2CCC3)c1 [Compound 3, N-((5-(cyclopropylmethyl)-2,3-dihydro-1H-inden-4-yl)carbamoyl)-4-(2-hydroxypropan-2-yl)furan-2-sulfonamide] | 100 to 500 | – | – |
| CC(C)c1cccc([C@@H](C)C2CC2)c1NC(=O)NS(=O)(=O)c1cc(C(C)(C)O)co1 [Compound 71, (S)-N-((2-(1-cyclopropylethyl)-6-isopropylphenyl)carbamoyl)-4-(2-hydroxypropan-2-yl)furan-2-sulfonamide] | 100 to 500 | – | – |
| Cc1oc(S(=N)(=O)NC(=O)Nc2c(C(C)C3CC3)ccc3c2CCC3)cc1C(C)(C)O (single isomer, unassigned) [Compound 24-1, RS- and SS-N-((5-(1-cyclopropylethyl)-2,3-dihydro-1H-inden-4-yl)carbamoyl)-4-(2-hydroxypropan-2-yl)-5-methylfuran-2-sulfonimidamide] | – | 100 to 500 | – |
| C[C@@H](c1ccc2c(c1NC(=O)NS(=N)(=O)c1cc(C(C)(C)O)co1)CCC2)C1CCC1 (mixture of isomers) [Compound 80-1, (RS)- and (SS)-N-((5-((R)-1-cyclobutylethyl)-2,3-dihydro-1H-inden-4-yl)carbamoyl)-4-(2-hydroxypropan-2-yl)furan-2-sulfonimidamide] | – | 100 to 500 | – |
| CC(C)(O)c1ncc(S(=N)(=O)NC(=O)Nc2c(CC3CCC3)ccc3c2CCC3)s1 (single isomer, unassigned) [Compound 19-1, RS- and SS-N-((5-(cyclobutylmethyl)-2,3-dihydro-1H-inden-4-yl)carbamoyl)-2-(2-hydroxypropan-2-yl)thiazole-5-sulfonimidamide] | – | 1000 to 5000 | – |
| C[C@@H](c1ccc2c(c1NC(=O)NS(=O)(=O)c1cc(C3(O)CC3)co1)CCC2)C1CC1 [Compound 59, (R)-N-((5-(1-cyclopropylethyl)-2,3-dihydro-1H-inden-4-yl)carbamoyl)-4-(1-hydroxycyclopropyl)furan-2-sulfonamide] | 500 to 1000 | – | – |
| C[C@H](c1ccc2c(c1NC(=O)NS(=O)(=O)c1cc(C(C)(C)O)co1)CCC2)C1CCC1 [Compound 81, (S)-N-((5-(1-cyclobutylethyl)-2,3-dihydro-1H-inden-4-yl)carbamoyl)-4-(2-hydroxypropan-2-yl)furan-2-sulfonamide] | 1000 to 5000 | – | – |
| CC(C)(O)c1coc(S(=N)(=O)NC(=O)Nc2c(CC3CCC3)ccc3c2CC3)c1 (single isomer, unassigned) [Compound 34-2, RS- and SS-N-((3-(cyclobutylmethyl)bicyclo[4.2.0]octa-1(6),2,4-trien-2-yl)carbamoyl)-4-(2-hydroxypropan-2-yl)furan-2-sulfonimidamide] | – | ≤ 100 | – |
| Cc1oc(S(=N)(=O)NC(=O)Nc2c(C(C)C3CC3)ccc3c2CCC3)cc1C(C)(C)O (racemic) [Compound 25-2, (RS, SC)- and (SS, SC)-N-((5-(1-cyclopropylethyl)-2,3-dihydro-1H-inden-4-yl)carbamoyl)-4-(2-hydroxypropan-2-yl)-5-methylfuran-2-sulfonimidamide] | – | 100 to 500 | – |
| C[C@@H](c1ccc2c(c1NC(=O)NS(=O)(=O)c1sc(C(C)(C)O)cc1F)CCC2)C1CC1 [Compound 64, (R)-N-((5-(1-cyclopropylethyl)-2,3-dihydro-1H-inden-4-yl)carbamoyl)-3-fluoro-5-(2-hydroxypropan-2-yl)thiophene-2-sulfonamide] | 100 to 500 | – | – |
| C[C@H](c1ccc2c(c1NC(=O)NS(=O)(=O)c1cc(C(C)(C)O)co1)CC2)C1CC1 [Compound 35, (S)-N-((3-(1-cyclopropylethyl)bicyclo[4.2.0]octa-1(6),2,4-trien-2-yl)carbamoyl)-4-(2-hydroxypropan-2-yl)furan-2-sulfonamide] | 1000 to 5000 | – | – |
| CC(C)(O)c1coc(S(=O)(=O)NC(=O)Nc2c(CC3CCCC3)ccc3c2CCC3)c1 [Compound 28, N-((5-(cyclopentylmethyl)-2,3-dihydro-1H-inden-4-yl)carbamoyl)-4-(2-hydroxypropan-2-yl)furan-2-sulfonamide] | 500 to 1000 | – | – |
| CC(c1cc(C#N)c2c(c1NC(=O)NS(=N)(=O)c1cc(C(C)(C)O)co1)CCC2)C1CC1 (racemic) [Compound 46-2, (RS, RC)- and (SS, RC)-N-((7-cyano-5-(1-cyclopropylethyl)-2,3-dihydro-1H-inden-4-yl)carbamoyl)-4-(2-hydroxypropan-2-yl)furan-2-sulfonimidamide] | – | 100 to 500 | – |
| C[C@@H](c1ccc2c(c1NC(=O)NS(=O)(=O)c1cc(C(C)(C)O)co1)CCC2)C1CC1 [Compound 5, (R)-N-((5-(1-cyclopropylethyl)-2,3-dihydro-1H-inden-4-yl)carbamoyl)-4-(2-hydroxypropan-2-yl)furan-2-sulfonamide] | ≤ 100 | – | – |
| RS- and SS-N-((5-(cyclobutylmethyl)-2,3-dihydro-1H-inden-4-yl-7-d)carbamoyl)-4-(2-hydroxypropan-2-yl)furan-2-sulfonimidamide [Compound 39-2] | – | 1000 to 5000 | – |
| CC(C)(O)c1coc(S(=N)(=O)NC(=O)Nc2c(CC3CCC3)ccc3c2CC3)c1 (single isomer, unassigned) [Compound 34-1, RS- and SS-N-((3-(cyclobutylmethyl)bicyclo[4.2.0]octa-1(6),2,4-trien-2-yl)carbamoyl)-4-(2-hydroxypropan-2-yl)furan-2-sulfonimidamide] | – | 5000 to 10000 | – |
| Cc1oc(S(=N)(=O)NC(=O)Nc2c(C(C)C3CC3)ccc3c2CCC3)cc1C(C)(C)O (racemic) [Compound 25-1, (RS, SC)- and (SS, SC)-N-((5-(1-cyclopropylethyl)-2,3-dihydro-1H-inden-4-yl)carbamoyl)-4-(2-hydroxypropan-2-yl)-5-methylfuran-2-sulfonimidamide] | – | ≤ 100 | – |
| CC(C)c1cccc([C@@H](C)C2CC2)c1NC(=O)NS(=N)(=O)c1cc(C(C)(C)O)co1 (mixture of isomers) [Compound 73-1, (RS, SC) and (SS, SC)-N-((2-(1-cyclopropylethyl)-6-isopropylphenyl)carbamoyl)-4-(2-hydroxypropan-2-yl)furan-2-sulfonimidamide] | – | ≤ 100 | – |
| C[C@H](c1ccc2c(c1NC(=O)NS(=O)(=O)c1ccc(C(C)(C)O)s1)CCC2)C1CC1 [Compound 57, (S)-N-((5-(1-cyclopropylethyl)-2,3-dihydro-1H-inden-4-yl)carbamoyl)-5-(2-hydroxypropan-2-yl)thiophene-2-sulfonamide] | 1000 to 5000 | – | – |
| CC(C)(O)c1coc(S(=O)(=O)NC(=O)Nc2c3c(cc4c2CCC4)CCC3)c1 [Control 3, 1-(1,2,3,5,6,7-hexahydro-s-indacen-4-yl)-3-[4-(1-hydroxy-1-methyl-ethyl)-furan-2-sulfonyl]urea, reference compound] | – | – | AUC ([2]; iv, 1 mg/kg): 1400 ng·h/mL; Vd ([2]; iv, 1 mg/kg): 0.402 L/kg; clearance ([2]; iv, 1 mg/kg): 14.2 mL/min/kg; half-life ([2]; iv, 1 mg/kg): 0.46 h; bioavailability ([2]; po): 36.4%; AUC ([2]; po, 10 mg/kg): 5080 ng·h/mL; Cmax ([2]; po, 10 mg/kg): 1930 ng/mL; half-life ([2]; po, 10 mg/kg): 2.1 h |
